As usually defined, the EC50 is the concentration that produces a half-maximal response. Lower therefore signals greater potency.

The results in this text go back to patent US8420859B2, “Formulations” (Syngenta Limited, priority 2006, dated 2013).

The subject of data set [1] is amaranthus retroflexus (AMARE), alopecurus myosuorides (ALOMY), chenopodium album (CHEAL) and digitaria sanguinalis (DIGSA). As to the kind of experiment: Phytotoxic damage to young plants sprayed with solvent. Format: in vivo. The following applies: for Observed damage with solvent and Tween 20: solvent 1% w/w plus 0.5% Tween 20, 2500 litres per hectare. An excerpt: Formulations that are applied to crop plants can often lead to phytotoxic damage. This damage may take the form of the formation of necrotic spots where sprayed formulation has landed on leaf surfaces or it may take the form of chlorosis or larger scale damage to the plant such as dessication and death. In order to assess the safety of solvents to plant species they were sprayed at high usage rates and high water volumes onto very sensitive, young plants.
The plant species amaranthus retroflexus (AMARE), alopecurus myosuorides (ALOMY), chenopodium album (CHEAL) and digitaria sanguinalis (DIGSA) were grown from seed under glass house conditions until they reached the first leaf stage. A solvent was dissolved in distilled water at a rate of 1% w/w and sprayed onto the plants at a rate of 2500 litres per hectare using a laboratory track sprayer. The plants were maintained in the glasshouse for a period of 2 weeks in order to observe any effects on the plants. Untreated plants were grown and kept under the same conditions as a direct comparison to the treated samples. A second set of identical plants was also sprayed with the novel solvent however in this case 0.5% of the commercial surfactant Tween 20 (T) was also added to the spray solution. In this experiment control plants for comparison were also sprayed with 0.5% Tween 20 but not with the solvent. Plants were examined after 1, 2, 6, 7, 9 and 13 days to try to find evidence of damage to the treated plants. All experiments were carried out in duplicate.

Data set [2] in a line: Solubility of cyproconazole in solvent (saturated solution, HPLC). Format: physicochemical. The procedure: A sample of a solvent (200 microlitres) was added to a 4 ml volume glass vial. The pesticide cyproconazole was added to the vial and shaken to allow thorough mixing. The vial was left to equilibrate at 25° C. for 24 hours after which time it was examined visually. If the solid had dissolved a further quantity of cyproconazole was added, the vial shaken and then left for another 24 hours. This process was repeated until a saturated solution had formed after which time the vial was left to equilibrate for one week. The glass vial was thoroughly shaken using a laboratory Whirlimixer™ (T) (Fisons Scientific Instruments Limited), once per day, during this period. After this time the sample was centrifuged, the supernatant was sampled and analysed by HPLC with reference to a known weight of pure cyproconazole, in order to determine the concentration of cyproconazole in solution.

The next data set has as its system daphnia. Briefly: Daphnia screening at 100 mg/l, immobility over 24 and 48 hours. Format: in vivo. As to conditions: single concentration 100 mg/l, 18-19° C., four replicates; for EC50: 48 h. The procedure: Daphnia screening is commonly carried out to assess the inherent toxicity of chemicals. In this test five daphnia were placed in a beaker full of water held between 18 and 19° C. A lactamide chemical of interest was introduced to a concentration of 100 mg/l and the daphnia were monitored over 24 and 48 hours. Any daphnia which became immobile were recorded and the number was used for the assessment. If less than half of the daphnia were immobile after 48 hours the EC50 (48 hours) figure was classified as being >100 mg/l [otherwise, it would be less than or equal to 100 mg/l]. The lactamides of Table 6 were tested and their EC50 figures are tabulated (each experiment was replicated four times and in fact in all these tests none of the daphnia died): […]

Another data set concerns skin. Briefly: SIFT (Skin Integrity Function Test): electrical resistance of skin after exposure. An excerpt:
Skin irritation and damage can be measured most easily by a well-known SIFT (Skin Integrity Function Test) procedure measuring the electrical resistance of the skin after exposure to the material of interest and comparing this to the electrical resistance of untreated skin. […] SLS is used in shampoo and toothpaste formulations and is a suitable control because much is known about its irritating behaviour on human skin and eye tissue.

A short description of data set [3]: Flash point, Seta flash 3 closed cup tester. The following applies: Seta flash 3 closed cup tester model 30000-0. The data set is classed as physicochemical. The procedure:
The flammability of solvents is of concern to minimise risk during storage, transport and use. Typically the risk is assessed by measuring the flash point of the solvent. […] The measured value was 108° C.

Where [4] appears, read: solvent 1% w/w in distilled water, 2500 litres per hectare, first leaf stage plants, examined 1-13 days, duplicate.
The mark [5] stands for this setting: first leaf stage plants, examined 1-13 days, duplicate.

As to `CCN(CC)CCCNC(=O)C(C)O` (stereo not drawn) [3-diethylamino propyl lactamide], in data set [1] (setting [4]), the “Observed damage with solvent” value is listed as “None”.
Consider `CC(C)CC(C)NC(=O)C(C)O` (stereo not drawn) [N-1,3-dimethyl butyl lactamide], for which, in data set [1] (setting [4]), the “Observed damage with solvent” value is reported as “None”. Further, the “Observed damage with solvent and Tween 20” value in data set [1] (setting [5]) was “None”.
For the molecule `CC(C)CCC(C)NC(=O)C(C)O` (stereo not drawn) [N-1,4-dimethylpentyl lactamide], the “% cyproconazole in solution” value in data set [2] is reported as 10.5% w/w.
Turning to `CCC(CO)NC(=O)C(C)O` (stereo not drawn) [N-1-ethyl-2-hydroxyethyl lactamide], the “Observed damage with solvent and Tween 20” value in data set [1] (setting [5]) is on record as “None”.
`CC(O)C(=O)NCCO` (stereo not drawn) [N-2-hydroxyethyl lactamide]: the “Observed damage with solvent” value in data set [1] (in vivo) is given as “None”.
As for `CCC(CC)NC(=O)C(C)O` (stereo not drawn) [N-(1-ethylpropyl) lactamide], the EC50 with daphnia was over 100 µg/mL.
Same read-out and setting: for `CCCCC(CC)CNC(=O)C(C)O` (stereo not drawn) [N-(2-ethylhexyl) lactamide] the value was over 100 µg/mL.
With `C=CCNC(=O)C(C)O` (stereo not drawn) [N-allyl lactamide], the “Observed damage with solvent” value in data set [1] (setting [4]) is recorded as “None”. Also, the “Observed damage with solvent and Tween 20” value in data set [1] (setting [5]) is on record as “None”. Further, the EC50 with daphnia was over 100 µg/mL.
Regarding `CC(O)C(=O)NCc1ccccc1` (stereo not drawn) [N-benzyl Lactamide], the “Observed damage with solvent” value in data set [1] (setting [4]) was “None”. In addition, the “Observed damage with solvent and Tween 20” value in data set [1] (setting [5]) is reported as “None”.
For the molecule `CCNC(=O)C(C)O` (stereo not drawn) [N-ethyl lactamide], the “Observed damage with solvent” value in data set [1] (setting [4]) is reported as “None”. Moreover, the “Observed damage with solvent and Tween 20” value in data set [1] (setting [5]) is recorded as “None”.
Take `CCN(CCO)C(=O)C(C)O` (stereo not drawn) [N-ethyl-N-2-hydroxyethyl lactamide]: the “Observed damage with solvent” value in data set [1] (setting [4]) is recorded as “None”. Moreover, in data set [1] (setting [5]), the “Observed damage with solvent and Tween 20” value is recorded as “None”. Moreover, the “EC50 (48 hours)” value in the data set on daphnia is over 100 µg/mL. For the same molecule, in data set [2], the “% cyproconazole in solution” value is listed as 18.2% w/w.
For `CC(O)C(=O)N(CCO)Cc1ccccc1` (stereo not drawn) [N-hydroxyethyl-N-benzyl lactamide], the “Observed damage with solvent” value in data set [1] (setting [4]) is recorded as “None”. The “Observed damage with solvent and Tween 20” value in data set [1] (setting [5]) is “None”. Also, in the data set on daphnia, the “EC50 (48 hours)” value is over 100 µg/mL. For the same molecule, the “% cyproconazole in solution” value in data set [2] came to 25.0% w/w.
For the molecule `CC(C)CNC(=O)C(C)O` (stereo not drawn) [N-isobutyl lactamide], the “Observed damage with solvent” value in data set [1] (setting [4]) is recorded as “None”. For the same molecule, the “Observed damage with solvent and Tween 20” value in data set [1] (setting [5]) is recorded as “None”.
For `CC(C)NC(=O)C(C)O` (stereo not drawn) [N-isopropyl Lactamide], the “Observed damage with solvent” value in data set [1] (setting [4]) is on record as “None”. The “Observed damage with solvent and Tween 20” value in data set [1] (setting [5]) was “None”.
As to `CCCCN(C)C(=O)C(C)O` (stereo not drawn) [N-methyl-N-butyl lactamide], the “Observed damage with solvent” value in data set [1] (setting [4]) is “None”. The “Observed damage with solvent and Tween 20” value in data set [1] (setting [5]) is “None”. The “EC50 (48 hours)” value with daphnia is over 100 µg/mL. Besides, the “% cyproconazole in solution” value in data set [2] worked out at 33.0% w/w.
As to `CCCN(C)C(=O)C(C)O` (stereo not drawn) [N-methyl-N-propyl lactamide], the “Observed damage with solvent” value in data set [1] (setting [4]) was “None”. For the same molecule, the “Observed damage with solvent and Tween 20” value in data set [1] (setting [5]) is given as “None”. Further, the “EC50 (48 hours)” value in the data set on daphnia was over 100 µg/mL. The “% cyproconazole in solution” value in data set [2] came out at 27.3% w/w.
Consider `CC(O)C(=O)NN1CCOCC1` (stereo not drawn) [N-morpholinyl lactamide], for which, in data set [1] (setting [4]), the “Observed damage with solvent” value was “None”. Further, in data set [1] (setting [5]), the “Observed damage with solvent and Tween 20” value is reported as “None”. Further, the EC50 in the data set with daphnia is over 100 µg/mL.
Take `CC(O)C(=O)NCCCN1CCOCC1` (stereo not drawn) [N-propyl morpholynyl lactamide]: in data set [1] (setting [4]), the “Observed damage with solvent” value is “None”. Further, in data set [1] (setting [5]), the “Observed damage with solvent and Tween 20” value was “None”.
Consider `CC(O)C(=O)NN1CCCC1` (stereo not drawn) [N-pyrrolidinyl lactamide], for which the “Observed damage with solvent” value in data set [1] (setting [4]) was “None”. Also, the “Observed damage with solvent and Tween 20” value in data set [1] (setting [5]) was “None”.
As for `CCC(C)NC(=O)C(C)O` (stereo not drawn) [N-sec-butyl lactamide], in data set [1] (setting [4]), the “Observed damage with solvent” value is listed as “None”. The “Observed damage with solvent and Tween 20” value in data set [1] (setting [5]) is “None”.
Take `CCCCCCCCCCCCOS(=O)(=O)[O-].[Na+]` [SLS, sodium lauryl sulphate]: the Electrical resistivity in the data set on skin (0.5% w/w aqueous solution, Table 2, untreated control 8.00) is 2.03 kilo ohms; with skin (1.0% solution, Table 2, untreated control 8.00), 1.84 kilo ohms; in the data set with skin (10.0% solution, Table 2, untreated control 8.00), 0.91 kilo ohms; in the data set with skin (10% w/w solution, skin post-treatment, mean of five measurements, untreated control 8.00), 0.91 kilo ohms.
In data set [3], `CC(O)C(=O)N(C)C` (stereo not drawn) [dimethyl lactamide, N,N-dimethyl lactamide] came in with a flash point of 108 °C. In addition, the Electrical resistivity in the data set on skin (1 % w/w) is recorded as 8.04 kilo ohms; with skin (10 % w/w), 7.72 kilo ohms.
Consider N-1-hyroxyethylbutyl lactamide, for which the “Observed damage with solvent” value in data set [1] (setting [4]) is recorded as “None”. Moreover, in data set [1] (setting [5]), the “Observed damage with solvent and Tween 20” value was “None”.
As to N-2-hydroxyethyl piperidinyl lactamide, the “Observed damage with solvent” value in data set [1] (setting [4]) is “None”. The “Observed damage with solvent and Tween 20” value in data set [1] (setting [5]) is recorded as “None”. For the same molecule, the “EC50 (48 hours)” value in the data set on daphnia is over 100 µg/mL. Moreover, the “% cyproconazole in solution” value in data set [2] was 19.3% w/w.
